# Test results from the supplement of paper PMC10307832.
# Key:
# Assay in all cases: relative viability (nuclei count vs DMSO), 5 days (fraction); higher = more cells survive
# Obatoclax + Dasatinib = compound: COC1=CC(c2cc3ccccc3[nH]2)=N/C1=C\c1[nH]c(C)cc1C [Obatoclax] + Cc1nc(Nc2ncc(C(=O)Nc3c(C)cccc3Cl)s2)cc(N2CCN(CCO)CC2)n1 [Dasatinib] (partner 0.075 µM)
# Procedure, shortened: (§1)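 Lung cancer cell lines were seeded in 1536-well plates and dosed by pin tool the next day, with either a single drug or a fixed anchor-drug dose combined with five library-drug doses (not always all listed) spaced in √10 steps. Five days later, one step fixed the cells and stained their nuclei (final 0.05% Triton X-100, 1% formaldehyde, 1 ug/ml Hoechst), and nuclei were counted on 4× images. Relative viability is the nuclei count in treated wells divided by the count in vehicle wells, and each value is the median of duplicate plates.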
# Bortezomib + Tozasertib = compound: CC(C)C[C@H](NC(=O)[C@H](Cc1ccccc1)NC(=O)c1cnccn1)B(O)O [Bortezomib] + Cc1cc(Nc2cc(N3CCN(C)CC3)nc(Sc3ccc(NC(=O)C4CC4)cc3)n2)n[nH]1 [Tozasertib] (partner 0.1 µM)
# Procedure, shortened: as §1
# Obatoclax + Alpelisib = compound: COC1=CC(c2cc3ccccc3[nH]2)=N/C1=C\c1[nH]c(C)cc1C [Obatoclax] + Cc1nc(NC(=O)N2CCC[C@H]2C(N)=O)sc1-c1ccnc(C(C)(C)C(F)(F)F)c1 [Alpelisib] (partner 2 µM)
# Procedure, shortened: as §1
# Bortezomib + Olaparib = compound: CC(C)C[C@H](NC(=O)[C@H](Cc1ccccc1)NC(=O)c1cnccn1)B(O)O [Bortezomib] + O=C(c1cc(Cc2n[nH]c(=O)c3ccccc23)ccc1F)N1CCN(C(=O)C2CC2)CC1 [Olaparib] (partner 8 µM)
# Procedure, shortened: as §1
Cell Line,relative viability (Obatoclax + Dasatinib; first compound 0.01 µM),relative viability (Obatoclax + Dasatinib; first compound 0.03162 µM),relative viability (Obatoclax + Dasatinib; first compound 0.1 µM),relative viability (Obatoclax + Dasatinib; first compound 0.3162 µM),relative viability (Obatoclax + Dasatinib; first compound 1 µM),relative viability (Bortezomib + Tozasertib; first compound 0.0002 µM),relative viability (Bortezomib + Tozasertib; first compound 0.000632 µM),relative viability (Bortezomib + Tozasertib; first compound 0.002 µM),relative viability (Bortezomib + Tozasertib; first compound 0.006325 µM),relative viability (Bortezomib + Tozasertib; first compound 0.02 µM),relative viability (Obatoclax + Alpelisib; first compound 0.01 µM),relative viability (Obatoclax + Alpelisib; first compound 0.03162 µM),relative viability (Obatoclax + Alpelisib; first compound 0.1 µM),relative viability (Obatoclax + Alpelisib; first compound 0.3162 µM),relative viability (Obatoclax + Alpelisib; first compound 1 µM),relative viability (Bortezomib + Olaparib; first compound 0.0002 µM),relative viability (Bortezomib + Olaparib; first compound 0.000632 µM),relative viability (Bortezomib + Olaparib; first compound 0.002 µM),relative viability (Bortezomib + Olaparib; first compound 0.006325 µM),relative viability (Bortezomib + Olaparib; first compound 0.02 µM)
LK-2,0.329,0.263,0.394,0.375,0.229,0.182,0.191,0.173,0.157,0.161,1.07,1.13,1.43,1.07,1.03,0.699,0.695,0.714,0.169,0.123
LOU-NH91,0.557,0.511,0.379,0.486,0.51,0.643,0.7,0.32,0.224,0.166,0.741,0.651,0.66,0.643,0.636,0.893,0.84,0.348,0.318,0.286
NCI-H522,1.03,0.757,0.696,0.851,0.573,0.475,0.529,0.419,0.344,0.337,–,–,–,–,–,0.62,0.618,0.744,0.347,0.313
NCI-H1299,–,–,–,–,–,–,–,–,–,–,1.01,1.1,0.985,1.04,1,0.98,0.917,1.03,0.239,0.103
NCI-H1563,0.457,0.437,0.453,0.457,0.469,–,–,–,–,–,0.917,0.922,0.934,0.867,0.791,–,–,–,–,–
NCI-H1623,0.548,0.502,0.499,0.572,0.52,0.425,0.52,0.46,0.316,0.199,–,–,–,–,–,–,–,–,–,–
NCI-H1648,–,–,–,–,–,0.439,0.396,0.262,0.453,0.257,–,–,–,–,–,0.721,0.822,0.799,0.238,0.267
NCI-H1650,0.304,0.329,0.396,0.271,0.179,0.426,0.57,0.19,0.139,0.153,–,–,–,–,–,0.607,0.757,0.165,0.12,0.157
NCI-H1703,–,–,–,–,–,–,–,–,–,–,0.41,0.344,0.412,0.321,0.276,0.417,0.318,0.123,0.0785,0.0739
NCI-H1792,0.867,0.8,–,0.72,0.962,–,–,–,–,–,0.746,0.658,–,0.638,0.781,0.415,0.313,0.531,0.062,0.046
NCI-H2342,0.365,0.303,0.347,0.285,0.302,0.765,0.471,0.511,0.409,0.313,–,–,–,–,–,0.514,0.503,0.382,0.473,0.273
SW 900,0.637,0.627,0.543,0.206,0.153,0.522,0.544,0.184,0.103,0.14,–,–,–,–,–,0.855,0.63,0.213,0.148,0.173
